Data from ChEMBL document CHEMBL1157784, “Antitumor activity and COMPARE analysis of bis-indole derivatives” (Bioorg Med Chem, 2010).
Structures can show the parent of a compound that is named as a salt.

Key:
Assay type in all cases: functional
[1] = Growth inhibition of human leukemia cell by NCI-CLS assay
[2] = Growth inhibition of human ovarian cancer cell by NCI-CLS assay; conditions: Cancer cell lines; for CC50: read-out: LC50 (the source's name)
[3] = Growth inhibition of human melanoma cell by NCI-CLS assay; conditions: for CC50: read-out: LC50 (the source's name)
[4] = Growth inhibition of human prostate cancer cell by NCI-CLS assay; conditions: Cancer cell lines; for CC50: read-out: LC50 (the source's name)
[5] = Growth inhibition of human breast cancer cell by NCI-CLS assay; conditions: Cancer cell lines; for CC50: read-out: LC50 (the source's name)
NSCLC = assay: Growth inhibition of human NSCLC cell by NCI-CLS assay
[6] = Growth inhibition of human renal cancer cell by NCI-CLS assay; conditions: Cancer cell lines; for CC50: read-out: LC50 (the source's name)
[7] = Growth inhibition of human colon cancer cell by NCI-CLS assay; conditions: Cancer cell lines
[8] = Growth inhibition of human CNS cancer cell by NCI-CLS assay; conditions: Cancer cell lines; for CC50: read-out: LC50 (the source's name)

## O=Cc1cccc(/C=C2/C(=O)Nc3c2ccc2ccccc32)n1
[1]
  GI50: 2.5 µM
  TGI: 7.6 µM
[2]
  GI50: 8.7 µM
  TGI: 30.9 µM
  CC50: 72.4 µM
[3]
  GI50: 11.5 µM
  TGI: 35.5 µM
  CC50: 72.4 µM
[4]
  GI50: 5.7 µM
  TGI: 33.1 µM
  CC50: 97.7 µM
[5]
  GI50: 6.2 µM
  TGI: 45.7 µM
  CC50: 79.4 µM
NSCLC
  GI50: 14.4 µM
  LC50: 85.1 µM
  TGI: 37.1 µM
[6]
  GI50: 10.7 µM
  TGI: 26.9 µM
  CC50: 74.1 µM
[7]
  GI50: 9.5 µM
  LC50: 83.2 µM
  TGI: 44.7 µM
[8]
  GI50: 11.2 µM
  TGI: 33.9 µM
  CC50: 91.2 µM

## COc1ccc2c(c1)/C(=C\c1cc(C(C)(C)C)cc(/C=C3/C(=O)Nc4ccc(OC)cc43)c1O)C(=O)N2
[1]
  GI50: 3.9 µM
  TGI: 43.6 µM
[2]
  GI50: 5.9 µM
  TGI: 25.1 µM
  CC50: 61.7 µM
[3]
  GI50: 4.4 µM
  TGI: 13.2 µM
  CC50: 39.8 µM
[4]
  GI50: 4.8 µM
  TGI: 24.5 µM
  CC50: 72.4 µM
[5]
  GI50: 5.5 µM
  TGI: 31.6 µM
  CC50: 63.1 µM
NSCLC
  GI50: 8.7 µM
  LC50: 69.2 µM
  TGI: 32.4 µM
[6]
  GI50: 7.2 µM
  TGI: 22.4 µM
  CC50: 61.7 µM
[7]
  GI50: 6.3 µM
  LC50: 53.7 µM
  TGI: 19.9 µM
[8]
  GI50: 4.8 µM
  TGI: 21.4 µM
  CC50: 66.1 µM

## COc1ccc2c(c1)/C(=C\c1cc(OC)c(O)c(-c3cc(/C=C4/C(=O)Nc5ccc(OC)cc54)cc(OC)c3O)c1)C(=O)N2
[1]
  GI50: 6.9 µM
  TGI: 89.1 µM
[2]
  GI50: 15.1 µM
[3]
  GI50: 10.7 µM
  TGI: 93.3 µM
[4]
  GI50: 10.5 µM
[5]
  GI50: 13.8 µM
NSCLC
  GI50: 21.9 µM
  TGI: 95.5 µM
[6]
  GI50: 20.9 µM
  TGI: 95.5 µM
[7]
  GI50: 10.5 µM
  TGI: 75.9 µM
[8]
  GI50: 6.8 µM
  TGI: 87.1 µM

## O=C1Nc2c(ccc3ccccc23)/C1=C\c1cccc(/C=C2/C(=O)Nc3c2ccc2ccccc32)n1
[1]
  GI50: 1.5 µM
  LC50: 77.6 µM
  TGI: 10 µM
[2]
  GI50: 19 µM
  TGI: 56.2 µM
  CC50: 91.2 µM
[3]
  GI50: 13.8 µM
  TGI: 38 µM
  CC50: 77.6 µM
[4]
  GI50: 21.9 µM
  TGI: 81.3 µM
[5]
  GI50: 17.8 µM
  TGI: 69.2 µM
  CC50: 97.7 µM
NSCLC
  GI50: 24 µM
  LC50: 89.1 µM
  TGI: 57.5 µM
[6]
  GI50: 17 µM
  TGI: 41.7 µM
  CC50: 79.4 µM
[7]
  GI50: 14.4 µM
  LC50: 83.2 µM
  TGI: 44.7 µM
[8]
  GI50: 15.8 µM
  TGI: 49 µM
  CC50: 85.1 µM

## O=C1Nc2cccc(Cl)c2/C1=C\c1ccc2ccc3ccc(/C=C4/C(=O)Nc5cccc(Cl)c54)nc3c2n1
[1]
  GI50: 1.1 µM
  TGI: 30.2 µM
[2]
  GI50: 6.2 µM
  TGI: 30.9 µM
  CC50: 70.8 µM
[3]
  GI50: 13.2 µM
  TGI: 42.7 µM
  CC50: 61.7 µM
[4]
  GI50: 3.8 µM
  TGI: 31.6 µM
  CC50: 79.4 µM
[5]
  GI50: 14.4 µM
  TGI: 70.8 µM
  CC50: 93.3 µM
NSCLC
  GI50: 25.7 µM
  TGI: 79.4 µM
[6]
  GI50: 9.5 µM
  TGI: 58.9 µM
  CC50: 97.7 µM
[7]
  GI50: 3.9 µM
  LC50: 79.4 µM
  TGI: 30.9 µM
[8]
  GI50: 7.4 µM
  TGI: 34.7 µM
  CC50: 77.6 µM

## Cc1[nH]c(C)c(/C=C2/C(=O)Nc3ccc(F)cc32)c1/C=C1/C(=O)Nc2ccc(F)cc21
[1]
  GI50: 2.4 µM
  LC50: 37.1 µM
  TGI: 9.1 µM
[2]
  GI50: 8.1 µM
  TGI: 25.7 µM
  CC50: 72.4 µM
[3]
  GI50: 5.1 µM
  TGI: 18.2 µM
  CC50: 52.5 µM
[4]
  GI50: 7.9 µM
  TGI: 20.4 µM
  CC50: 44.7 µM
[5]
  GI50: 4.9 µM
  TGI: 22.4 µM
  CC50: 70.8 µM
NSCLC
  GI50: 7.8 µM
  LC50: 74.1 µM
  TGI: 25.1 µM
[6]
  GI50: 9.1 µM
  TGI: 32.4 µM
  CC50: 75.9 µM
[7]
  GI50: 5 µM
  LC50: 53.7 µM
  TGI: 17 µM
[8]
  GI50: 3.4 µM
  TGI: 13.2 µM
  CC50: 46.8 µM

## CC[C@]1(O)C[C@H]2CN(CCc3c([nH]c4ccccc34)[C@@](C(=O)OC)(c3cc4c(cc3OC)N(C=O)[C@H]3[C@@](O)(C(=O)OC)[C@H](OC(C)=O)[C@]5(CC)C=CCN6CC[C@]43[C@@H]65)C2)C1 [VINCRISTINE SULFATE]
[1]
  GI50: 0.1 µM
  TGI: 15.8 µM
[2]
  GI50: 0.3 µM
  TGI: 19.9 µM
[3]
  GI50: 0.2 µM
  TGI: 7.9 µM
[4]
  GI50: 0.1 µM
  TGI: 6.3 µM
[5]
  GI50: 0.3 µM
  TGI: 7.9 µM
NSCLC
  GI50: 0.2 µM
  TGI: 15.8 µM
[6]
  GI50: 0.3 µM
  TGI: 19.9 µM
[7]
  GI50: 0.1 µM
  TGI: 4 µM
[8]
  GI50: 0.1 µM
  TGI: 6.3 µM
